Where a SMILES comes first, the peptide text is derived from it. [ ]: non-standard residue; d: D form. The star is where a group is joined. X1 = CCCCCCCCCCCCCCCC(=O)OC[C@H](COP(=O)(O)OCCNC(=O)CCCc1ccc(N2C(=O)CC(*)C2=O)cc1)OC(=O)CCCCCCCCCCCCCCC; pS = N[C@@H](COP(=O)(O)O)C(=O)O
Columns and labels:
[1] = molecular target: AP2 core σ2L103S (UniProt P17427+P62743+P63010+P84092, L103S); assay type: binding; settings: pH 8.7
[2] = molecular target: AP2 core σ2V88D (UniProt P17427+P62743+P63010+P84092, V88D); assay type: binding; settings: pH 8.7
Sequence of AP2 core σ2V88D (P62743 whole entry V88D): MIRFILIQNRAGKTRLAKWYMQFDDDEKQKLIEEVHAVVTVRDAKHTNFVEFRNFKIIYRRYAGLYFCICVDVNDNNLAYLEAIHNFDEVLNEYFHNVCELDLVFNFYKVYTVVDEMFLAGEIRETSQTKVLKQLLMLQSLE
Sequence of AP2 core σ2V88D (P63010 1-591, stated change not applied): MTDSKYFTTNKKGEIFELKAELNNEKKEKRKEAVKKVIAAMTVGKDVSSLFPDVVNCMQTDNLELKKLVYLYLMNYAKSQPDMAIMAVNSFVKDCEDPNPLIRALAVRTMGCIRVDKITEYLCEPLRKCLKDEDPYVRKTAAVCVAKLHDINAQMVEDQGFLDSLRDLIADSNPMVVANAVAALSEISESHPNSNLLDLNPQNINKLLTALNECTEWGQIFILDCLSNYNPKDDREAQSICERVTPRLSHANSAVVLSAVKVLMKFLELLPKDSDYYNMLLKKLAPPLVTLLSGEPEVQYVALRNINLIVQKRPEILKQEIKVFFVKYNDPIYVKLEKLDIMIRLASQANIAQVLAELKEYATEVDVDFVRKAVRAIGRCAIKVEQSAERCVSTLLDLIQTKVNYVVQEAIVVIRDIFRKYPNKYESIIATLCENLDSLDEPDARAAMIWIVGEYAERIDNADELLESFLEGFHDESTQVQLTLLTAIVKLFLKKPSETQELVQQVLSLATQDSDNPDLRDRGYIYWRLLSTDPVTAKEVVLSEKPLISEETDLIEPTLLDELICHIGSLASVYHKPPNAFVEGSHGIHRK
Sequence of AP2 core σ2V88D (P84092 whole entry, stated change not applied): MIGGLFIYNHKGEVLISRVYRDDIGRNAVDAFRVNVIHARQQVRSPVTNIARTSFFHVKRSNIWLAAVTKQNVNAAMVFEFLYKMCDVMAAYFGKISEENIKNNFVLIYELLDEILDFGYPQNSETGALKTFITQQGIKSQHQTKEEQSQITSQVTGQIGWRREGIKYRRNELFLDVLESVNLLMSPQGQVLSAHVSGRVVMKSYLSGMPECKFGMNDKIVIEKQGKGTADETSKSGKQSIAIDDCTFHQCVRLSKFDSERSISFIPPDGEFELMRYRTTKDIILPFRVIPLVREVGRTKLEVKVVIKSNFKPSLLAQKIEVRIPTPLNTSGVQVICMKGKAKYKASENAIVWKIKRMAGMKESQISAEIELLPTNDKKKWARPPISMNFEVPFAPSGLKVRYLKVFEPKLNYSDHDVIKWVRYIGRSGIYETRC
Sequence of AP2 core σ2V88D (P17427 1-621): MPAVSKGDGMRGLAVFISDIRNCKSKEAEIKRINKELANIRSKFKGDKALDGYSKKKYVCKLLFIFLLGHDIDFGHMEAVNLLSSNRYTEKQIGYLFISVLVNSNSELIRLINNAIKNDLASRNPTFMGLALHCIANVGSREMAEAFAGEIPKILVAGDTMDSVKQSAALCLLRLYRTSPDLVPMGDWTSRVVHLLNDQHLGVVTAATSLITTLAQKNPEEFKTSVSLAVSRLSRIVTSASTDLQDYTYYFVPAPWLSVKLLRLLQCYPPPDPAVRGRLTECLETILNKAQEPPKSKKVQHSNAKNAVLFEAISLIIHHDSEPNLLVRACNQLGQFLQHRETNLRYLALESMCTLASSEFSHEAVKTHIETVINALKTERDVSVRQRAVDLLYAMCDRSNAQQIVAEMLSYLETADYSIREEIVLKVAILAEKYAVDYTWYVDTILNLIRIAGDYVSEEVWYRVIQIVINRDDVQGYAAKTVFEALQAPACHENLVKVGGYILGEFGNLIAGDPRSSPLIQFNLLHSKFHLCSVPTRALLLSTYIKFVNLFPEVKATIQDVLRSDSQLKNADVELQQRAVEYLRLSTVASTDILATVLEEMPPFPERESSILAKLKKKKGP

Sequence of AP2 core σ2L103S (P62743 whole entry L103S): as the sequence (P62743 whole entry V88D) above, with D88V, L103S counted along it
Sequence of AP2 core σ2L103S (P84092 whole entry): as the sequence (P84092 whole entry, stated change not applied) above
Sequence of AP2 core σ2L103S (P17427 1-621): as the sequence (P17427 1-621) above
Sequence of AP2 core σ2L103S (P63010 1-591): as the sequence (P63010 1-591, stated change not applied) above

CCCCCCCCCCCCCCCC(=O)OC[C@H](COP(=O)(O)OCCNC(=O)CCCc1ccc(N2C(=O)CC(SC[C@H](N)C(=O)N[C@@H](Cc3c[nH]cn3)C(=O)N[C@@H](CCCNC(=N)N)C(=O)N[C@@H](CCCNC(=N)N)C(=O)N[C@@H](CCCNC(=N)N)C(=O)N[C@@H](CCC(N)=O)C(=O)N[C@@H](C)C(=O)N[C@@H](CCC(=O)O)C(=O)N[C@@H](CCCNC(=N)N)C(=O)N[C@@H](CCSC)C(=O)N[C@@H](COP(=O)(O)O)C(=O)N[C@@H](CCC(N)=O)C(=O)N[C@H](C(=O)N[C@@H](CCCCN)C(=O)N[C@@H](CCCNC(=N)N)C(=O)N[C@@H](CC(C)C)C(=O)N[C@@H](CC(C)C)C(=O)N[C@@H](CO)C(=O)N[C@@H](CCC(=O)O)C(=O)N[C@@H](CCCCN)C(=O)O)[C@@H](C)CC)C2=O)cc1)OC(=O)CCCCCCCCCCCCCCC (some centres unmarked) [phospho-CD4 Q-peptide] (H-C(X1)HRRRQAERM[pS]QIKRLLSEK-OH; N-terminus and C-terminus assumed)
KD [1]: below detectable levels | KD [2]: below detectable levels
